Measured values: ChEMBL document CHEMBL3430912, “GSK Tres Cantos Anti-Kinetoplastid Screening (TCAKS) Data”

How the values were obtained:
Trypanosoma cruzi [1] = test: GSK_TCAKS: pIC50 Trypanosoma cruzi viability assay using beta-GAL activity. This assay was run at single shot at 5uM compound concentration per well. The biological reagents consisted of NIH-3T3 host cells and trypomastigotes parasitic cells; both cell types were set to a 3.3 * 10^5 cells/mL dilution in assay DMEM by means of a CASY cell counter device using a 60um capillary. 6 uL of the mixture were dispensed per well (about 1 * 10^3 host-cells and 1 * 10^3 parasites) with a Multidrop Combi dispenser. […] In all wells, the percentage of DMSO never exceeded 0.5%. Plates incubated for four days at 37C, 5% CO2. The substrate used for the assay fluorescence intensity (FLINT) readout was resorufin-beta-D-galactopiranoside (Sigma-Aldrich) at 5uM per well. It was diluted in PBS supplemented with the soft detergent Igepal (Fluka).; assay type: functional, organism-based, Mus musculus; settings: Tulahuen, NIH3T3
Trypanosoma cruzi [2] = test: (§1) GSK_TCAKS: pIC50 Trypanosoma cruzi Imaging: Infected Cells. […] Cells were then washed once with PBS before infection. T. cruzi trypomastigotes, collected at days 5 to 8 after infection from LLC-MK2 parasite infected cultures, were allowed to swim out for 4h at 37C from a centrifuged pellet (2,500 rpm/10 min/room temperature). Trypomastigotes were then collected and counted in a CASY Cell Counter. Trypomastigotes, in supplemented DMEM, were added to H9c2 cultures in a multiplicity of infection of 1 and incubated for 18 h. Cells were washed once with PBS before incubation of the infected H9c2 monolayer with trypsin (Life-Technologies) to detach cells from the flask. Cells were counted in a CASY Cell Counter using a 150 um capillary and their density set at 5 * 10^4 cells per mL in supplemented assay DMEM. Infected H9c2 were dispensed into 384-well poly-lysine coated assay plates at 50uL per well using a Multidrop Combi dispenser. After seeding them, the plates were incubated at 37C, 5% CO2 for 72h. Cultures were then fixed and stained by addition of 50 uL of a solution containing 8% formaldehyde and 4 uM DRAQ5 DNA dye (BioStatus, UK) per well. […] Five images were collected per well for reliable statistical analysis. Automated image analysis was performed with a script developed on Acapella High Content Imaging and Analysis Software (PerkinElmer). Output: percentage of infected cells per well as a second infection marker.; assay type: functional, organism-based, Rattus norvegicus; settings: H9c2, 4 h
Trypanosoma cruzi [3] = test: GSK_TCAKS: pIC50 Trypanosoma cruzi Imaging: Amastigotes/Cell. […] Cells were then washed once with PBS before infection. T. cruzi trypomastigotes, collected at days 5 to 8 after infection from LLC-MK2 parasite infected cultures, were allowed to swim out for 4h at 37C from a centrifuged pellet (2,500 rpm/10 min/room temperature). Trypomastigotes were then collected and counted in a CASY Cell Counter. Trypomastigotes, in supplemented DMEM, were added to H9c2 cultures in a multiplicity of infection of 1 and incubated for 18 h. Cells were washed once with PBS before incubation of the infected H9c2 monolayer with trypsin (Life-Technologies) to detach cells from the flask. Cells were counted in a CASY Cell Counter using a 150 um capillary and their density set at 5 * 10^4 cells per mL in supplemented assay DMEM. Infected H9c2 were dispensed into 384-well poly-lysine coated assay plates at 50uL per well using a Multidrop Combi dispenser. After seeding them, the plates were incubated at 37C, 5% CO2 for 72h. Cultures were then fixed and stained by addition of 50 uL of a solution containing 8% formaldehyde and 4 uM DRAQ5 DNA dye (BioStatus, UK) per well. […] Five images were collected per well for reliable statistical analysis. Automated image analysis was performed with a script developed on Acapella High Content Imaging and Analysis Software (PerkinElmer). Output: number of amastigotes per cell as infection level measurement.; assay type: functional, organism-based, Rattus norvegicus; settings: H9c2, 4 h
Trypanosoma cruzi [4] = test: as §1, with “H2C9” for “Trypanosoma cruzi”, “H9c2 Host Cardiomyocytes.” for “Infected Cells.”, “Number” for “percentage”, “H9c2 Host Cardiomyocytes nuclei to determine drug-related cytotoxicity.” for “infected cells per well as a second infection marker.”; assay type: functional, organism-based, Rattus norvegicus; settings: H9c2, 4 h
Leishmania donovani [5] = test: GSK_TCAKS: pIC50 Leishmania donovani viability assay using fluorescence intensity. Assay plates (1536-well) were prepared by adding 30nL per well of compound. For single shot assay, the final compound concentration was 5uM. […] Briefly, eGFP LdBOB axenic amastigotes were harvested, fixed and counted in a CASY cell counter (Roche-Applied Science). A final concentration of 1.5 * 10^5 cells per well were prepared in amastigote media containing 500 U/mL penicillin/streptomycin (Invitrogen) and 6uL was dispensed to each experimental well using a Multidrop Combi dispenser (Thermo Scientific). 6uL of assay media was dispensed to control columns used as reference for 100% compound response. Following incubation for 72 h at 37C, 5% CO2, 2 uL of resazurin was added to each well at a final concentration of 0.5 mM in phosphate buffered saline (PBS) with IGEPAL (Sigma-Aldrich), 0.05% (v/v).; assay type: functional, organism-based
Leishmania donovani [6] = test: (§2) GSK_TCAKS: pIC50 Leishmania donovani Imaging: Infected Macrophages. Assay plates (384-well) were prepared by adding 250nL of compound to each well. For single shot assay, the final compound concentration was 5 uM. […] Automated image analysis was performed with a script developed on Acapella High Content Imaging and Analysis Software (PerkinElmer). Output: Percent of infected macrophage cells were reported for each well.; assay type: functional, organism-based, Homo sapiens; settings: THP-1
Leishmania donovani [7] = test: as §2, with “Amastigotes/Macrophages.” for “Infected Macrophages.”, “Average number” for “Percent”, “amastigotes per” for “infected”, “cell” for “cells”; assay type: functional, organism-based, Homo sapiens; settings: THP-1
Leishmania donovani [8] = test: as §2, with “THP-1 Host” for “Infected”, “THP-1 cell count” for “Percent of infected macrophage cells”; assay type: functional, organism-based, Homo sapiens
[9] = test system: Trypanosoma brucei brucei; test: GSK_TCAKS: pIC50 Trypanosoma brucei viability assay using fluorescence intensity. Assay plates (1536-well) were prepared by dispensing 25nL of compound solution per well using an Echo acoustic dispenser (Labcyte).; assay type: functional, organism-based; settings: Lister 427, 2 h
[10] = test system: Trypanosoma brucei brucei; test: GSK_TCAKS: pIC50 Trypanosoma brucei viability assay using luminiscence. Assay plates (1536-well) were prepared. T. brucei cultures were harvested and counted in a CASY cell counter. A parasite suspension was prepared at a final concentration of 5 * 10^4 cells/mL in complete HMI9 medium and 6uL was dispensed to all wells containing compounds using a Multidrop Combi dispenser. 6uL of HMI9 media with 0.4% DMSO were dispensed to control columns. Plates were incubated for 24 h at 37C, 5% CO2 then tempered for 10 min at room temperature. ATP content was quantified by adding 4 uL of CellTiter-Glo Reagent (Promega) according to the manufacturer's instructions. Luminescence was measured using a ViewLux.; assay type: functional, organism-based; settings: Lister 427, CASY
[11] = GSK_TCAKS: pIC50 HepG2 human cell line viability assay using luminiscence. […] Seeding density was checked to ensure that new mono-layers were not more than 50% confluent at the time of harvesting. Cell suspension was added to 500 mL of the same medium at a final density of 1.2 * 10^5 cells/mL. This cell suspension was dispensed (25 uL, 3000 cells per well) into 384-well clear-bottom plates using a Multidrop Combi dispenser. Prior to addition of the cell suspension, the screening compounds (250 nL) were pre-dispensed into the plates with an Echo liquid handler. Plates were incubated for 48 h at 37C, 5% CO2. After incubation, plates equilibrated at room temperature for 30 min before proceeding to develop the luminescent signal. The signal developer, CellTiter-Glo Reagent, was allowed to equilibrate at room temperature for 30 min and added to the plates (25uL per well) using a Multidrop Combi dispenser. Plates were left for 10 min at room temperature for stabilization and then read using a ViewLux.; assay type: toxicity, cell-based
NIH3T3 = test: GSK_TCAKS: pIC50 NIH 3T3 cell line viability assay using luminiscence. Tissue culture surface treated assay plates (1536-well) were used. […] The 100% cells survival control was determined exposing the host-cells to a 0.5% DMSO concentration, whereas the 100% toxicity control was achieved by seeding the cells in presence of Amphotericin B at 50uM. Plates were incubated for four days at 37C, 5% CO2. The assay readout was developed by addition of 5uL of CellTiter-Glo Reagent following the manufacturer's instructions. Luminiscence was measured using a ViewLux.; assay type: functional, cell-based; settings: Mus musculus, NIH3T3, 96 h
[12] = target: Sterol 14-alpha demethylase (Trypanosoma cruzi (strain CL Brener), UniProt Q7Z1V1); test: GSK_TCAKS: pIC50 CYP51 from Trypanosoma cruzi.; assay type: functional
Sterol 14-alpha demethylase, sequence (Q7Z1V1 whole entry): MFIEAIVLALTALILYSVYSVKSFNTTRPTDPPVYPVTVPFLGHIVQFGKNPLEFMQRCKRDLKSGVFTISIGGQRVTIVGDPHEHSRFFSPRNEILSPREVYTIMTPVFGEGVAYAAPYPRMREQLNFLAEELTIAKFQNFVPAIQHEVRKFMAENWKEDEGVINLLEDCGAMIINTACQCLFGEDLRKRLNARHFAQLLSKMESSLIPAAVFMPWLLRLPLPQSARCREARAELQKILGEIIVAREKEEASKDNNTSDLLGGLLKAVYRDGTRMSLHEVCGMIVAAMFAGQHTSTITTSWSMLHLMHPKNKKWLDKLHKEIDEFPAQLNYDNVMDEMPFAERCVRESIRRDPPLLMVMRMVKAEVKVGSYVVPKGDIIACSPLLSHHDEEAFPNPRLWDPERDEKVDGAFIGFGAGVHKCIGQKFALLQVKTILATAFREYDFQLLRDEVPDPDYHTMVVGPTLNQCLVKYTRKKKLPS

SMILES	IC50 (Trypanosoma cruzi [1]) [µM]	IC50 (Trypanosoma cruzi [2]) [µM]	IC50 (Trypanosoma cruzi [3]) [µM]	IC50 (Trypanosoma cruzi [4]) [µM]	IC50 (Leishmania donovani [5]) [µM]	IC50 (Leishmania donovani [6]) [µM]	IC50 (Leishmania donovani [7]) [µM]	IC50 (Leishmania donovani [8]) [µM]	IC50 [9] [µM]	IC50 [10] [µM]	IC50 at 48 h [11] [µM]	IC50 (NIH3T3) [µM]	IC50 [12] [µM]
COc1cccc(-c2cc(C(F)(F)F)nc(-n3ccc([N+](=O)[O-])n3)n2)c1	0.398	0.398	0.2	> 50.1	> 50.1	> 50.1	> 50.1	> 50.1	31.6	> 39.8	> 100	> 50.1	> 100
CN(C)Cc1ccc(-c2ccc(S(=O)(=O)NCC3CCCO3)c(F)c2)cc1 (centres undefined)	1.26	5.01	2	> 63.1	> 63.1	> 63.1	> 63.1	> 63.1	25.1	39.8	> 126	15.8	39.8
O=c1cc(NCCCNC2CCOc3c(I)cc(Cl)cc32)[nH]c2ccccc12 (centres undefined)	0.794	0.316	0.158	25.1	31.6	20	12.6	20	0.01	0.02	63.1	25.1	15.8
Cc1sc(C)c(C(F)(F)F)c1CNCCCNc1cc(=O)c2ccccc2[nH]1	0.794	1	0.501	> 50.1	> 50.1	50.1	25.1	31.6	0.01	0.0126	50.1	10	20
CC(C)N(C(=O)CN1C(=O)C(N)C(=O)N(c2ccccc2)c2ccccc21)c1ccccc1 (centres undefined)	0.316	0.316	0.398	> 50.1	> 50.1	> 50.1	> 50.1	> 50.1	> 39.8	> 39.8	> 100	20	0.316
O=C1CCCCCC1(Cc1cnc[nH]1)c1ccc(Cl)cc1Cl (centres undefined)	0.251	0.251	0.316	> 50.1	> 50.1	> 50.1	6.31	> 50.1	> 39.8	> 39.8	79.4	20	0.1
Clc1ccc(C(CC2CCCCO2)Cn2cncn2)c(Cl)c1 (centres undefined)	0.398	1.26	1	> 50.1	25.1	> 50.1	> 50.1	> 50.1	> 39.8	> 39.8	> 100	39.8	0.251
COc1ccc(CN(C)Cc2ccncc2)cc1-c1ccc(S(=O)(=O)NC2CCC2)s1	0.501	0.631	0.501	10	39.8	> 50.1	15.8	20	> 39.8	20	> 100	25.1	0.0794
